Legend:
[1] = molecular target: T1, Phosphatidylinositol 4,5-bisphosphate 3-kinase catalytic subunit delta isoform (Homo sapiens, UniProt O00329); assay: Scintillation Proximity Assay: PI3Kδ:[γ-33P]ATP (10 mCi/mL) and Wheat Germ Agglutinin (WGA) YSi SPA Scintillation Beads was purchased from Perkin-Elmer (Waltham, Mass.). Lipid kinase substrate, D-myo-Phosphatidylinositol 4,5-bisphosphate (PtdIns(4,5)P2)D (+)-sn-1,2-di-O-octanoylglyceryl, 3-O-phospho linked (PIP2), CAS 204858-53-7, was purchased from Echelon Biosciences (Salt Lake City, Utah). PI3Kδ (p110δ/p85α) Recombinant Human Protein was purchased from Eurofins (St Charles, Mo.). ATP, MgCl2, DTT, EDTA, MOPS and CHAPS were purchased from Sigma-Aldrich (St. Louis, Mo.).The kinase reaction was conducted in polystyrene 384-well Greiner Bio-one white plate from Thermo Fisher Scientific in a final volume of 25 μL. Inhibitors were first diluted serially in DMSO and added to the plate wells before the addition of other reaction components. The final concentration of DMSO in the assay was 2%. The PI3Kδ assay was carried out at room temperature in 20 mM MOPS, pH 6.7, 10 mM MgCl2, 5 mM DTT and CHAPS 0.03%. Reactions were initiated by the addition of ATP, the final reaction mixture consisted of 20 μM PIP2, 2 μM ATP, 0.5 μCi [γ-33P] ATP, 3.4 nM PI3Kδ. Reactions were incubated for 120 min and terminated by the addition of 40 μL SPA beads suspended in quench buffer: 163 mM potassium phosphate pH 7.8, 20% glycerol, 25 mM EDTA. The final concentration of SPA beads is 1.0 mg/mL. […]
T1 sequence (O00329 whole entry): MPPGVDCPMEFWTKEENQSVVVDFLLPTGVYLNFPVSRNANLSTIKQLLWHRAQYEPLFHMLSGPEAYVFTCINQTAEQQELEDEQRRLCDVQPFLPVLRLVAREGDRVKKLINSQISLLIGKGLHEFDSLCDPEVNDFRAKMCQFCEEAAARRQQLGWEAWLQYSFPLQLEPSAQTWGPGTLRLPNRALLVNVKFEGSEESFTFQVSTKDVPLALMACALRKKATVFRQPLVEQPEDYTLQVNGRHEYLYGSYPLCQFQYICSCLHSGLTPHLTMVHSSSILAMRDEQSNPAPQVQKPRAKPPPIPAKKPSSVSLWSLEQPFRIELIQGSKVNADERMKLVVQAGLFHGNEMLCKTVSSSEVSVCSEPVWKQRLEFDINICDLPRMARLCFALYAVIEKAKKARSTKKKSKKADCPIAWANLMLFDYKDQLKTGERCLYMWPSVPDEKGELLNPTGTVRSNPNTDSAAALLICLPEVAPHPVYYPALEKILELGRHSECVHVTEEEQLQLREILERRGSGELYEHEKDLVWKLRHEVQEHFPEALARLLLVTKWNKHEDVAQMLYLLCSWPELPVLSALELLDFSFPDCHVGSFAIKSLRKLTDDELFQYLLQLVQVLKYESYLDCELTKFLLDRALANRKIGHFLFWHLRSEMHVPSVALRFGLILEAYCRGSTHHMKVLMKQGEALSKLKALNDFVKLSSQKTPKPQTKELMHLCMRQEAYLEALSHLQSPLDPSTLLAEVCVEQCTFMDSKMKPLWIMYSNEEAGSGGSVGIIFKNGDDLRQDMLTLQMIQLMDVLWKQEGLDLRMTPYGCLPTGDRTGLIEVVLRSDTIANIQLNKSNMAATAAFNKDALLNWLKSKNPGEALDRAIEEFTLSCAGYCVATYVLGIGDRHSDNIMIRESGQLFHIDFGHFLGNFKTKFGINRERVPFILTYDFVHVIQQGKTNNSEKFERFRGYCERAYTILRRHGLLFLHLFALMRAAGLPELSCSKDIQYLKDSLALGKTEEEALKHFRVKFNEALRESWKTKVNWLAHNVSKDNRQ

[2] = molecular target: Phosphatidylinositol 4,5-bisphosphate 3-kinase catalytic subunit gamma isoform (Homo sapiens, UniProt P48736); assay: PI3Kγ (p110γ) Recombinant Human Protein was purchased from Life technology (Grand Island, N.Y.). […] Inhibitors were first diluted serially in DMSO and added to the plate wells before the addition of other reaction components. The final concentration of DMSO in the assay was 2%. The PI3Kγ assay was carried out at room temperature in 20 mM MOPS, pH 6.7, 10 mM MgCl2, 5 mM DTT and CHAPS 0.03%. […] The final concentration of SPA beads is 1.0 mg/mL. After the plate sealing, plates were shaken overnight at room temperature and centrifuged at 1500 rpm for 10 min, the radioactivity of the product was determined by scintillation counting on Topcount (Perkin-Elmer).
Phosphatidylinositol 4,5-bisphosphate 3-kinase catalytic subunit gamma isoform, sequence (P48736 whole entry, canonical isoform): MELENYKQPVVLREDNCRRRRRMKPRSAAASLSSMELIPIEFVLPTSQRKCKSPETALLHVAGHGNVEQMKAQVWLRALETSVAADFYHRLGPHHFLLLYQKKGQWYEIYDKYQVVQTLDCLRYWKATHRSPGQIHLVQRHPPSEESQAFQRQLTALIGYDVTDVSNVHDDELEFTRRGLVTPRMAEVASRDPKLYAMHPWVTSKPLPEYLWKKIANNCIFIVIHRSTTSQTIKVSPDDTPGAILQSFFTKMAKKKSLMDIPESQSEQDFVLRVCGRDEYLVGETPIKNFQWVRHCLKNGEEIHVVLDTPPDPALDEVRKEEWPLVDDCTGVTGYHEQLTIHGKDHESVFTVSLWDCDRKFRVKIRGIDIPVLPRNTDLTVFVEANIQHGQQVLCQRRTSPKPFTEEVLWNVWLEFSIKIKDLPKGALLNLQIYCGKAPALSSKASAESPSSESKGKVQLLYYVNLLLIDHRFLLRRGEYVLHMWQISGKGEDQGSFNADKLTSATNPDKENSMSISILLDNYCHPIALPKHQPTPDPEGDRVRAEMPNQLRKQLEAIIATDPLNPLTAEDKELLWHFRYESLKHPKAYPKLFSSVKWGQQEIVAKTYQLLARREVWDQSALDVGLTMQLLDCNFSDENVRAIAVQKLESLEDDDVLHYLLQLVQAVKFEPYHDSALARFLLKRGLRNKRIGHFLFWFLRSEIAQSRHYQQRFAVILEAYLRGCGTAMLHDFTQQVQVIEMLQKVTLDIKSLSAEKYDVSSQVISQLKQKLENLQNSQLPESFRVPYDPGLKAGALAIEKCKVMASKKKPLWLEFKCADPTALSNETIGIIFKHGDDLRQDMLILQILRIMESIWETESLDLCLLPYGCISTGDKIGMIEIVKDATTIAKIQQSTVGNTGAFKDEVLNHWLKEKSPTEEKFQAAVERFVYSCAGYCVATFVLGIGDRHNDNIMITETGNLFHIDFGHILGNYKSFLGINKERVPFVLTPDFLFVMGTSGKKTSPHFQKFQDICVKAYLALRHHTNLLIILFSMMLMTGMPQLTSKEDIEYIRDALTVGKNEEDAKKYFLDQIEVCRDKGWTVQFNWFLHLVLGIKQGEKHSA

## Cc1ccc(S(=O)(=O)CC2CCC2)cc1-c1cnc2c(N)ncnn12
[1]
  IC50: < 2000 nM
[2]
  IC50: < 500 nM
